Reference: US7419780B2, “Methods and assays for screening protein targets” (The Trustees of Columbia University in the City of New York, priority 2000, dated 2008)

Assays:
Assay type in all cases: cell-based, S. cerevisiae
Conditions in all cases: 1 uM small molecule, difference to activity without small molecule, average of two trials
[1] = target: T1, LexA (GSG)2rGR2 / B42 (GSG)2eDHFR (UniProt P06536+P0ABQ4, C656G/F620S); test: β-galactosidase activity assay, strain V510Y
T1 construct: rat Glucocorticoid Receptor (aa 524-795) with point mutations; expressed in transfected cells; host or cells: S. cerevisiae FY250
T1 sequence (P06536 524-795 F620S/C656G limits assumed): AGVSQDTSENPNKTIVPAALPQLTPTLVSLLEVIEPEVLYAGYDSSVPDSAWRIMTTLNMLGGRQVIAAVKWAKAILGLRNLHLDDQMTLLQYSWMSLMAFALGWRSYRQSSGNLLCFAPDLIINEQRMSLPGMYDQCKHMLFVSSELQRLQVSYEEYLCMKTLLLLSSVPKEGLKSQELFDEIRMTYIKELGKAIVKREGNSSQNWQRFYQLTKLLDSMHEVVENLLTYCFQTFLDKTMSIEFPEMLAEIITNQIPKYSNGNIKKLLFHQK
T1 sequence (P0ABQ4 1-159): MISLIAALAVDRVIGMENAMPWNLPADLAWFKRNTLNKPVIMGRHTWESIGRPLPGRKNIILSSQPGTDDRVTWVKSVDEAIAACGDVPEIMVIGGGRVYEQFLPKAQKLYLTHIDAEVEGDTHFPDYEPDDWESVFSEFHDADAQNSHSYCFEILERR
Text: (§1) Table III explains the components of each strain. Each strain was constructed from the parent yeast strain FY250 and also contains the pMW106 plasmid, which has the LacZ reporter gene that is turned on only in when the LexA DNA binding domain and the B42 activation are brought in tot he vicinity of each other. We use several different strains because we use DHFR from two different species, mDHFR is from murine, while eDHFR is from E. coli. We are asl oable to switch the small moleculebinding domains. For example, the strain containing LexA-eDHFR with B42-rGH2 is a different strain and behaves differently from the strain containing LexA-rGR2 with B42-eDHFR. We also put in short 6 amino acid linkers between the two domains of our protein chimeras and thus these are different strain as well.
(§2) The results in Table IV are averages of two separate trials. Each strain was examined with small molecules and without small molecules. The absolute activity is given as the β-galactisidase activity […]. The average β-galactosidse activity for a strain without small molecule (i.e. the negative control) was about 100 β-galactosidase units.

[2] = target: T2, LexA (GSG)2mDHFR / B42 rGR2 (UniProt P00375+P06536, C656G/F620S); test: β-galactosidase activity assay, strain V502Y
T2 construct: rat Glucocorticoid Receptor (aa 524-795) with point mutations; expressed in transfected cells; host or cells: S. cerevisiae FY250
T2 sequence (P00375 1-187): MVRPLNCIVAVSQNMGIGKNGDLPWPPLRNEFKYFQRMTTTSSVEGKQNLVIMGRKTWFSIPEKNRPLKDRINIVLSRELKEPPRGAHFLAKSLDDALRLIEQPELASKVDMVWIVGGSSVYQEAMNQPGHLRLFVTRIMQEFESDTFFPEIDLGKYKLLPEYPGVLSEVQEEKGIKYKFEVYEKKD
T2 sequence (P06536 524-795 F620S/C656G limits assumed): T1 sequence (P06536 524-795 F620S/C656G limits assumed)
Text: as §1, §2

[3] = target: T3, LexA (GSG)2rGR2 / B42 (GSG)2mDHFR (UniProt P00375+P06536, C656G/F620S); test: β-galactosidase activity assay, strain V512Y
T3 construct: rat Glucocorticoid Receptor (aa 524-795) with point mutations; expressed in transfected cells; host or cells: S. cerevisiae FY250
T3 sequence (P06536 524-795 F620S/C656G limits assumed): T1 sequence (P06536 524-795 F620S/C656G limits assumed)
T3 sequence (P00375 1-187): T2 sequence (P00375 1-187)
Text: as §1, §2

[4] = target: T4, LexA eDHFR / B42 gly6rGR2 (UniProt P06536+P0ABQ4, C656G/F620S); test: β-galactosidase activity assay, strain V375Y
T4 construct: rat Glucocorticoid Receptor (aa 524-795) with point mutations; expressed in transfected cells; host or cells: S. cerevisiae FY250
T4 sequence (P0ABQ4 1-159): T1 sequence (P0ABQ4 1-159)
T4 sequence (P06536 524-795 F620S/C656G limits assumed): T1 sequence (P06536 524-795 F620S/C656G limits assumed)
Text: as §1, §2

[5] = target: T5, LexA (GSG)2rGR2 / B42 eDHFR (UniProt P06536+P0ABQ4, C656G/F620S); test: β-galactosidase activity assay, strain V506Y
T5 construct: expressed in transfected cells; host or cells: S. cerevisiae FY250 with pMW106 lacZ reporter
T5 sequence (P06536 524-795 F620S/C656G limits assumed): T1 sequence (P06536 524-795 F620S/C656G limits assumed)
T5 sequence (P0ABQ4 1-159): T1 sequence (P0ABQ4 1-159)
Text: as §1, §2

[6] = target: T6, LexA (GSG)2eDHFR / B42 rGR2 (UniProt P06536+P0ABQ4, C656G/F620S); test: β-galactosidase activity assay, strain V498Y
T6 construct: rat Glucocorticoid Receptor (aa 524-795) with point mutations; expressed in transfected cells; host or cells: S. cerevisiae FY250
T6 sequence (P0ABQ4 1-159): T1 sequence (P0ABQ4 1-159)
T6 sequence (P06536 524-795 F620S/C656G limits assumed): T1 sequence (P06536 524-795 F620S/C656G limits assumed)
Text: as §1, §2

[7] = target: T7, LexA eDHFR / B42 rGR2 (UniProt P06536+P0ABQ4, C656G/F620S); test: β-galactosidase activity assay, strain V493Y
T7 construct: rat Glucocorticoid Receptor (aa 524-795) with point mutations; expressed in transfected cells; host or cells: S. cerevisiae FY250
T7 sequence (P0ABQ4 1-159): T1 sequence (P0ABQ4 1-159)
T7 sequence (P06536 524-795 F620S/C656G limits assumed): T1 sequence (P06536 524-795 F620S/C656G limits assumed)
Text: as §1, §2

[8] = target: T8, LexA rGR2 / B42 (GSG)2mDHFR (UniProt P00375+P06536, C656G/F620S); test: β-galactosidase activity assay, strain V511Y
T8 construct: expressed in transfected cells; host or cells: S. cerevisiae FY250 with pMW106 lacZ reporter
T8 sequence (P06536 524-795 F620S/C656G limits assumed): T1 sequence (P06536 524-795 F620S/C656G limits assumed)
T8 sequence (P00375 1-187): T2 sequence (P00375 1-187)
Text: as §1, §2

[9] = target: T9, LexA (GSG)2mDHFR / B42 (GSG)rGR2 (UniProt P00375+P06536, C656G/F620S); test: β-galactosidase activity assay, strain V504Y
T9 construct: rat Glucocorticoid Receptor (aa 524-795) with point mutations; expressed in transfected cells; host or cells: S. cerevisiae FY250
T9 sequence (P00375 1-187): T2 sequence (P00375 1-187)
T9 sequence (P06536 524-795 F620S/C656G limits assumed): T1 sequence (P06536 524-795 F620S/C656G limits assumed)
Text: as §1, §2

[10] = target: T10, LexA (GSG)2mDHFR / B42 gly6rGR2 (UniProt P00375+P06536, C656G/F620S); test: β-galactosidase activity assay, strain V503Y
T10 construct: expressed in transfected cells; host or cells: S. cerevisiae FY250 with pMW106 lacZ reporter
T10 sequence (P00375 1-187): T2 sequence (P00375 1-187)
T10 sequence (P06536 524-795 F620S/C656G limits assumed): T1 sequence (P06536 524-795 F620S/C656G limits assumed)
Text: as §1, §2

With `C[C@@H]1C[C@H]2C3CCC4=CC(=O)C=C[C@]4(C)[C@@]3(F)[C@@H](O)C[C@]2(C)[C@@]1(O)C(=O)NCCSCCCCCCCCSCC[C@H](NC(=O)c1ccc(N(C)Cc2cnc3nc(N)nc(N)c3n2)cc1)C(=O)O` (stereo partly shown) [D8M] the B-gal activity [1] was 3163 β-galactosidase units, the B-gal activity [2] was 30 β-galactosidase units and the B-gal activity [3] was −4 β-galactosidase units. The B-gal activity [4] was 5210 β-galactosidase units, the B-gal activity [5] was 3867 β-galactosidase units and the B-gal activity [6] was 5442 β-galactosidase units. For the same compound, the B-gal activity [7] was 5555 β-galactosidase units, the B-gal activity [8] was −129 β-galactosidase units and the B-gal activity [9] was 30 β-galactosidase units. For the same compound, the B-gal activity [10] was 45 β-galactosidase units.
